Assay results published in US8247211B2, “Glycopeptide antibiotics” (American Cyanamid Company, priority 2001, dated 2012).
Converted amounts (≈) assume the structure as drawn.

Tests used:
[1] = Anatomic pathology (heart and kidney histopathology) in mice; type: in vivo, CD-1 mice; conditions: 20 mg/kg intravenously daily for 9 days, microscopic histopathology on day 10
Procedure, shortened: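 Histopathology on H&E-stained, paraffin-embedded sections, subjectively scored (slight, mild, moderate, marked, severe) relative to untreated controls. Dosing: glycopeptide antibiotics 20 mg/kg intravenously once daily ×9 days in 20-day-old CD-1 mice, n=5 per group including vehicle.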

[2] = system: Staphylococcus aureus-SMITH (GC 4543); experiment: Acute lethal infection in mice (ED50); type: in vivo; conditions: female CD-1 mice, intraperitoneal challenge, intravenous dose 30 min. after infection, 7 day survival ratios
Procedure, shortened: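 Bacteria suspended in Trypticase Soy Broth or hog gastric mucin are injected intraperitoneally into female CD-1 mice at a dose killing untreated animals within 24-48 hr. Thirty minutes later, test agent is administered intravenously. Survival at day 7 is scored.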

Enterococcus sp. = experiment: In vitro antibacterial evaluation: minimum inhibitory concentration (MIC), broth dilution method; type: cell-based; conditions: 18 hours at 35° C.
Procedure, shortened: (§1)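 Values are minimum inhibitory concentrations, meaning the smallest antibiotic concentration that stops growth of the organism. They come from broth dilution in Muller-Hinton II […] per NCCLS guidance (M7-A2), using 5×10^5 CFU/mL and concentrations from 64 to 0.06 μg/mL.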

Escherichia coli = experiment: as above; type: cell-based; conditions: 18 hours at 35° C.
Procedure, shortened: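 Susceptibility determined by NCCLS-recommended broth dilution (M7-A2), Muller-Hinton II […]. Concentration span 64-0.06 μg/mL, inoculum 5×10^5 CFU/mL. Isolates include strains resistant to methicillin, penicillin and/or vancomycin.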

Streptococcus sp. = experiment: as above; type: cell-based; conditions: 18 hours at 35° C.
Procedure, shortened: as §1

Staphylococcus sp. = experiment: as above; type: cell-based; conditions: 18 hours at 35° C.
Procedure, shortened: as §1

[3] = Enterococcus faecalis (ATCC 29212)
[4] = Enterococcus faecalis (GC 2242)
[5] = Enterococcus faecalis (GC 2691)
[6] = Enterococcus faecalis (GC 3059)
[7] = Enterococcus faecalis (GC 4552)
[8] = Enterococcus faecalis (GC 4553)
[9] = Enterococcus faecalis (GC 4554)
[10] = Enterococcus faecalis (GC 6189)
[11] = broth dilution, inoculum 5×10^5 CFU/mL
[12] = Streptococcus pneumoniae (ATCC 6301)
[13] = Streptococcus pneumoniae (GC 1894)
[14] = Streptococcus pneumoniae (GC 4565)

COc1ccc2cc(COCC3OC(OC4C(CO)OC(Oc5ccc(CC6NC(=O)C(C(C)c7ccccc7)NC(=O)CNC(=O)C(CO)NC(=O)C(C(O)C7CNC(=N)N7C7OC(CO)C(O)C(O)C7O)NC(=O)C(C(O)C7CNC(=N)N7)NC6=O)cc5)C(O)C4O)C(O)C(O)C3O)ccc2c1 (stereo not drawn) [Example 230, Cyclo[glycyl-β-methylphenylalanyl-O-[4-O-[6-O-[(6-methoxy-2-naphthyl)methyl]hexopyranosyl]hexopyranosyl]tyrosyl-3-(2-iminoimidazolidin-4-yl)seryl-3-(3-hexopyranosyl-2-iminoimidazolidin-4-yl)serylseryl]]
Anatomical Pathology (Day 10), Heart [1]: 0
Anatomical Pathology (Day 10), Kidney [1]: +++
median effective dose (ED50), Staphylococcus aureus-SMITH (GC 4543) [2]: 0.12 mg/kg
MIC Enterococcus avium (GC 4558) (Enterococcus sp.; Enterococcus avium (GC 4558)): 8 µg/mL (≈ 5.46 µM)
MIC Enterococcus faecalis (ATCC 29212) (Enterococcus sp.; [3]): 8 µg/mL (≈ 5.46 µM)
MIC Enterococcus faecalis (GC 2242) (Enterococcus sp.; [4]): 8 µg/mL (≈ 5.46 µM)
MIC Enterococcus faecalis (GC 2691) (Enterococcus sp.; [5]): 4 µg/mL (≈ 2.73 µM)
MIC Enterococcus faecalis (GC 3059) (Enterococcus sp.; [6]): 8 µg/mL (≈ 5.46 µM)
MIC Enterococcus faecalis (GC 4552) (Enterococcus sp.; [7]): 8 µg/mL (≈ 5.46 µM)
MIC Enterococcus faecalis (GC 4553) (Enterococcus sp.; [8]): 8 µg/mL (≈ 5.46 µM)
MIC Enterococcus faecalis (GC 4554) (Enterococcus sp.; [9]): 8 µg/mL (≈ 5.46 µM)
MIC Enterococcus faecalis (GC 6189) (Enterococcus sp.; [10]): 4 µg/mL (≈ 2.73 µM)
MIC Enterococcus faecium (GC 2243) (Enterococcus sp.; Enterococcus faecium (GC 2243)): 8 µg/mL (≈ 5.46 µM)
MIC Enterococcus faecium (GC 4556) (Enterococcus sp.; Enterococcus faecium (GC 4556)): 8 µg/mL (≈ 5.46 µM)
MIC Enterococcus faecium (GC 4557) (Enterococcus sp.; Enterococcus faecium (GC 4557)): 2 µg/mL (≈ 1.36 µM)
MIC Enterococcus avium (GC 4558) (Enterococcus sp.; [11]): 8 µg/mL (≈ 5.46 µM)
MIC Enterococcus faecalis (ATCC 29212) (Enterococcus sp.; [11]): 8 µg/mL (≈ 5.46 µM)
MIC Enterococcus faecalis (GC 2242) (Enterococcus sp.; [11]): 8 µg/mL (≈ 5.46 µM)
MIC Enterococcus faecalis (GC 2691) (Enterococcus sp.; [11]): 4 µg/mL (≈ 2.73 µM)
MIC Enterococcus faecalis (GC 3059) (Enterococcus sp.; [11]): 8 µg/mL (≈ 5.46 µM)
MIC Enterococcus faecalis (GC 4552) (Enterococcus sp.; [11]): 8 µg/mL (≈ 5.46 µM)
MIC Enterococcus faecalis (GC 4553) (Enterococcus sp.; [11]): 8 µg/mL (≈ 5.46 µM)
MIC Enterococcus faecalis (GC 4554) (Enterococcus sp.; [11]): 8 µg/mL (≈ 5.46 µM)
MIC Enterococcus faecalis (GC 6189) (Enterococcus sp.; [11]): 4 µg/mL (≈ 2.73 µM)
MIC Enterococcus faecium (GC 2243) (Enterococcus sp.; [11]): 8 µg/mL (≈ 5.46 µM)
MIC Enterococcus faecium (GC 4556) (Enterococcus sp.; [11]): 8 µg/mL (≈ 5.46 µM)
MIC Enterococcus faecium (GC 4557) (Enterococcus sp.; [11]): 2 µg/mL (≈ 1.36 µM)
MIC Escherichia coli (ATCC 25922) (Escherichia coli): 64 µg/mL (≈ 43.7 µM)
MIC Escherichia coli (GC 4559) (Escherichia coli): >64 µg/mL
MIC Escherichia coli (GC 4560) (Escherichia coli; Escherichia coli (GC 4560)): 1 µg/mL (≈ 0.682 µM)
MIC Streptococcus agalactiae (GC 4564) (Streptococcus sp.; Streptococcus agalactiae (GC 4564)): 0.5 µg/mL (≈ 0.341 µM)
MIC Streptococcus pneumoniae (ATCC 6301) (Streptococcus sp.; [12]): 0.12 µg/mL (≈ 0.0819 µM)
MIC Streptococcus pneumoniae (GC 1894) (Streptococcus sp.; [13]): <0.06 µg/mL
MIC Streptococcus pneumoniae (GC 4565) (Streptococcus sp.; [14]): 0.12 µg/mL (≈ 0.0819 µM)
MIC Streptococcus pyogenes (GC 4563) (Streptococcus sp.; Streptococcus pyogenes (GC 4563)): 0.25 µg/mL (≈ 0.171 µM)
MIC Streptococcus agalactiae (GC 4564) (Streptococcus sp.; [11]): 0.5 µg/mL (≈ 0.341 µM)
MIC Streptococcus pneumoniae (ATCC 6301) (Streptococcus sp.; [11]): 0.12 µg/mL (≈ 0.0819 µM)
MIC Streptococcus pneumoniae (GC 1894) (Streptococcus sp.; [11]): <0.06 µg/mL
MIC Streptococcus pneumoniae (GC 4565) (Streptococcus sp.; [11]): 0.12 µg/mL (≈ 0.0819 µM)
MIC Streptococcus pyogenes (GC 4563) (Streptococcus sp.; [11]): 0.25 µg/mL (≈ 0.171 µM)
MIC Coagulase Negative Staphylococcus (GC 4547) (Staphylococcus sp.): 1 µg/mL (≈ 0.682 µM)
MIC Coagulase Negative Staphylococcus (GC 4548) (Staphylococcus sp.; Coagulase Negative Staphylococcus (GC 4548)): 0.5 µg/mL (≈ 0.341 µM)
MIC Coagulase Negative Staphylococcus (GC 4549) (Staphylococcus sp.; Coagulase Negative Staphylococcus (GC 4549)): 1 µg/mL (≈ 0.682 µM)
MIC Coagulase Negative Staphylococcus (GC 4551) (Staphylococcus sp.; Coagulase Negative Staphylococcus (GC 4551)): 2 µg/mL (≈ 1.36 µM)
MIC Coagulase Negative Staphylococcus (GC 6257) (Staphylococcus sp.; Coagulase Negative Staphylococcus (GC 6257)): 0.5 µg/mL (≈ 0.341 µM)
MIC Staphylococcus aureus (ATCC 29213) (Staphylococcus sp.): 2 µg/mL (≈ 1.36 µM)
MIC Staphylococcus aureus (GC 1131) (Staphylococcus sp.): 2 µg/mL (≈ 1.36 µM)
MIC Staphylococcus aureus (GC 3051) (Staphylococcus sp.): 2 µg/mL (≈ 1.36 µM)
MIC Staphylococcus aureus (GC 3053) (Staphylococcus sp.): 2 µg/mL (≈ 1.36 µM)
MIC Staphylococcus aureus (GC 4541) (Staphylococcus sp.): 1 µg/mL (≈ 0.682 µM)
MIC Staphylococcus aureus (GC 4542) (Staphylococcus sp.; Staphylococcus aureus (GC 4542)): 2 µg/mL (≈ 1.36 µM)
MIC Staphylococcus aureus (GC 4544) (Staphylococcus sp.): 2 µg/mL (≈ 1.36 µM)
MIC Staphylococcus aureus (GC 4545) (Staphylococcus sp.): 1 µg/mL (≈ 0.682 µM)
MIC Staphylococcus aureus-SMITH (GC 4543) (Staphylococcus sp.): 1 µg/mL (≈ 0.682 µM)
MIC Staphylococcus haemolyticus (GC 4546) (Staphylococcus sp.; Staphylococcus haemolyticus (GC 4546)): 1 µg/mL (≈ 0.682 µM)

COc1ccc2cc(COC3C(CO)OC(OC4C(CO)OC(Oc5ccc(CC6NC(=O)C(C(C)c7ccccc7)NC(=O)CNC(=O)C(CO)NC(=O)C(C(O)C7CNC(=N)N7C7OC(CO)C(O)C(O)C7O)NC(=O)C(C(O)C7CNC(=N)N7)NC6=O)cc5)C(O)C4O)C(O)C3O)ccc2c1 (stereo not drawn) [Example 230a, Cyclo[glycyl-β-methylphenylalanyl-O-[4-O-[4-O-[(6-methoxy-2-naphthyl)methyl]hexopyranosyl]hexopyranosyl]tyrosyl-3-(2-iminoimidazolidin-4-yl)seryl-3-(3-hexopyranosyl-2-iminoimidazolidin-4-yl)serylseryl]]
Anatomical Pathology (Day 10), Heart [1]: 0
Anatomical Pathology (Day 10), Kidney [1]: +
median effective dose (ED50), Staphylococcus aureus-SMITH (GC 4543) [2]: 0.06 mg/kg
MIC Enterococcus avium (GC 4558) (Enterococcus sp.; Enterococcus avium (GC 4558)): 2 to 4 µg/mL
MIC Enterococcus faecalis (ATCC 29212) (Enterococcus sp.; [3]): 2 to 4 µg/mL
MIC Enterococcus faecalis (GC 2242) (Enterococcus sp.; [4]): 2 to 4 µg/mL
MIC Enterococcus faecalis (GC 2691) (Enterococcus sp.; [5]): 2 to 4 µg/mL
MIC Enterococcus faecalis (GC 3059) (Enterococcus sp.; [6]): 2 to 4 µg/mL
MIC Enterococcus faecalis (GC 4552) (Enterococcus sp.; [7]): 2 to 4 µg/mL
MIC Enterococcus faecalis (GC 4553) (Enterococcus sp.; [8]): 2 to 4 µg/mL
MIC Enterococcus faecalis (GC 4554) (Enterococcus sp.; [9]): 2 to 4 µg/mL
MIC Enterococcus faecalis (GC 6189) (Enterococcus sp.; [10]): 1 to 4 µg/mL
MIC Enterococcus faecium (GC 2243) (Enterococcus sp.; Enterococcus faecium (GC 2243)): 2 to 4 µg/mL
MIC Enterococcus faecium (GC 4556) (Enterococcus sp.; Enterococcus faecium (GC 4556)): 2 to 4 µg/mL
MIC Enterococcus faecium (GC 4557) (Enterococcus sp.; Enterococcus faecium (GC 4557)): 1 to 2 µg/mL
MIC Enterococcus avium (GC 4558) (Enterococcus sp.; [11]): 2 to 4 µg/mL
MIC Enterococcus faecalis (ATCC 29212) (Enterococcus sp.; [11]): 2 to 4 µg/mL
MIC Enterococcus faecalis (GC 2242) (Enterococcus sp.; [11]): 2 to 4 µg/mL
MIC Enterococcus faecalis (GC 2691) (Enterococcus sp.; [11]): 2 to 4 µg/mL
MIC Enterococcus faecalis (GC 3059) (Enterococcus sp.; [11]): 2 to 4 µg/mL
MIC Enterococcus faecalis (GC 4552) (Enterococcus sp.; [11]): 2 to 4 µg/mL
MIC Enterococcus faecalis (GC 4553) (Enterococcus sp.; [11]): 2 to 4 µg/mL
MIC Enterococcus faecalis (GC 4554) (Enterococcus sp.; [11]): 2 to 4 µg/mL
MIC Enterococcus faecalis (GC 6189) (Enterococcus sp.; [11]): 1 to 4 µg/mL
MIC Enterococcus faecium (GC 2243) (Enterococcus sp.; [11]): 2 to 4 µg/mL
MIC Enterococcus faecium (GC 4556) (Enterococcus sp.; [11]): 2 to 4 µg/mL
MIC Enterococcus faecium (GC 4557) (Enterococcus sp.; [11]): 1 to 2 µg/mL
MIC Escherichia coli (ATCC 25922) (Escherichia coli): 32 µg/mL (≈ 21.8 µM)
MIC Escherichia coli (GC 4559) (Escherichia coli): 32 µg/mL (≈ 21.8 µM)
MIC Streptococcus pneumoniae (ATCC 6301) (Streptococcus sp.; [12]): <0.06 µg/mL
MIC Streptococcus pneumoniae (GC 1894) (Streptococcus sp.; [13]): <0.06 µg/mL
MIC Streptococcus pneumoniae (GC 4565) (Streptococcus sp.; [14]): <0.06 µg/mL
MIC Streptococcus pneumoniae (ATCC 6301) (Streptococcus sp.; [11]): <0.06 µg/mL
MIC Streptococcus pneumoniae (GC 1894) (Streptococcus sp.; [11]): <0.06 µg/mL
MIC Streptococcus pneumoniae (GC 4565) (Streptococcus sp.; [11]): <0.06 µg/mL
MIC Coagulase Negative Staphylococcus (GC 4547) (Staphylococcus sp.): 0.5 to 2 µg/mL
MIC Staphylococcus aureus (ATCC 29213) (Staphylococcus sp.): 1 to 2 µg/mL
MIC Staphylococcus aureus (GC 1131) (Staphylococcus sp.): 0.5 to 2 µg/mL
MIC Staphylococcus aureus (GC 3051) (Staphylococcus sp.): 1 to 2 µg/mL
MIC Staphylococcus aureus (GC 3053) (Staphylococcus sp.): 1 to 2 µg/mL
MIC Staphylococcus aureus (GC 4541) (Staphylococcus sp.): 0.5 to 2 µg/mL
MIC Staphylococcus aureus (GC 4544) (Staphylococcus sp.): 1 to 2 µg/mL
MIC Staphylococcus aureus (GC 4545) (Staphylococcus sp.): 0.5 to 1 µg/mL
MIC Staphylococcus aureus-SMITH (GC 4543) (Staphylococcus sp.): 0.5 to 2 µg/mL
